Assay results from ChEMBL document CHEMBL2413014, “Imidazolium-based warheads strongly influence activity of water-soluble peptidic transglutaminase inhibitors” (Eur J Med Chem, 2013).
pIC50: −log10 of the molar value.

Key:
[1] = target: T1, Protein-glutamine gamma-glutamyltransferase (Homo sapiens, UniProt P21980); test: Inhibition of recombinant human tissue transglutaminase-mediated biotin X-cadaverine incorporation into N,N'-dimethylcasein after 1 hr
T1 sequence (P21980 whole entry): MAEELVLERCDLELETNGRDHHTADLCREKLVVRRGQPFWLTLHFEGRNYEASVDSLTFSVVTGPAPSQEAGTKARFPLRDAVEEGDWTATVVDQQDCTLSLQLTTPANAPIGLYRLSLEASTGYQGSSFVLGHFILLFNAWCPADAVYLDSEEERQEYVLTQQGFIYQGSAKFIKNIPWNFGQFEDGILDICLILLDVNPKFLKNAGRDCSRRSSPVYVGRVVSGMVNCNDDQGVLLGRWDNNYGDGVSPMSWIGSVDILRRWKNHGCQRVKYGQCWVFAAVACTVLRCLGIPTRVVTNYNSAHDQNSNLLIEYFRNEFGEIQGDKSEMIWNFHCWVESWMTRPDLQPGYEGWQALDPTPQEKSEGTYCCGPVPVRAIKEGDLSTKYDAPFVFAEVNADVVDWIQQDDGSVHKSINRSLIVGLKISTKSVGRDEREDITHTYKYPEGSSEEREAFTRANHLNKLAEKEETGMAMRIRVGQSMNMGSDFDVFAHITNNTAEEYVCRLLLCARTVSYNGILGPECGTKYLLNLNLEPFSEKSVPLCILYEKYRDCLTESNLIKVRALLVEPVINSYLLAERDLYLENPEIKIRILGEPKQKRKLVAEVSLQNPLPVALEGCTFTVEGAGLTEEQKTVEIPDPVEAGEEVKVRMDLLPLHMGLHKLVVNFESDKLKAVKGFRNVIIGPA

[2] = target: T2, Coagulation factor XIII A chain (Homo sapiens, UniProt P00488); test: Inhibition of recombinant human F13a-mediated biotin X-cadaverine incorporation into N,N'-dimethylcasein after 1 hr
T2 sequence (P00488 whole entry): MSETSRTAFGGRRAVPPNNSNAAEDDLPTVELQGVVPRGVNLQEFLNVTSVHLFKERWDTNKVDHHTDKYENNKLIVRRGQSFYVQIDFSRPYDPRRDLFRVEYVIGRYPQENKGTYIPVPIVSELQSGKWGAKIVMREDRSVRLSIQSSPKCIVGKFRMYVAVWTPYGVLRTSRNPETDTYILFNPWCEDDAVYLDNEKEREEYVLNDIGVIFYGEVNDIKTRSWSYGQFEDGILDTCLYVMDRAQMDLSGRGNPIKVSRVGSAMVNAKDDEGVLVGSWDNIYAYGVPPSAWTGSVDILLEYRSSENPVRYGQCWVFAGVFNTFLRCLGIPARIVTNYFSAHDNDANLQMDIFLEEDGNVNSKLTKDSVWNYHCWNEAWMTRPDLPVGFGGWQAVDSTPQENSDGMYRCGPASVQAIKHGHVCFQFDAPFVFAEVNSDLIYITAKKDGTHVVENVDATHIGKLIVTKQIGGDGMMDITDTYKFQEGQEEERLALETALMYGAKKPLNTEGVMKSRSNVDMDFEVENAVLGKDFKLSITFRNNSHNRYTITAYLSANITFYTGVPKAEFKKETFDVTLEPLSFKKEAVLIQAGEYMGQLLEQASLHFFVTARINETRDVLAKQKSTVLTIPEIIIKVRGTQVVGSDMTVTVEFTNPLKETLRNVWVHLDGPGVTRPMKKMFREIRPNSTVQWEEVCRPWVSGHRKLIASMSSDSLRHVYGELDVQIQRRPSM

NIH3T3 = test: Cytotoxicity against Swiss mouse 3T3 cells up to 250 uM after 72 hrs; assay type: cell-based; details: nih3t3, 72 h

Structure (SMILES)	pIC50 [1]	pIC50 [2]	Activity (NIH3T3)
CCCc1c(CCC)[n+](C)c(SCC(=O)CC[C@H](NC(=O)[C@H](Cc2ccccc2)NC(=O)OCc2ccccc2)C(=O)O)n1C	5.30	5.00	
Cc1c(C)[n+](C)c(SCC(=O)CC[C@H](NC(=O)CNC(=O)OCc2ccccc2)C(=O)O)n1-c1ccccc1	< 3.70	< 3.70	
Cc1c(C)[n+](C)c(SCC(=O)CC[C@H](NC(=O)[C@H](Cc2ccccc2)NC(=O)OCc2ccccc2)C(=O)O)n1Cc1ccccc1	< 3.70	< 3.70	
CCn1c(C)c(C)[n+](CC)c1SCC(=O)CC[C@H](NC(=O)[C@H](Cc1ccccc1)NC(=O)OCc1ccccc1)C(=O)O	< 3.70	4.30	
Cc1c(C)[n+](C)c(SCC(=O)CC[C@H](NC(=O)CNC(=O)OCc2ccccc2)C(=O)O)n1Cc1ccccc1	< 3.70	< 3.70	
CCCc1c(CCC)[n+](C)c(SCC(=O)CC[C@H](NC(=O)CNC(=O)OCc2ccccc2)C(=O)O)n1C	5.00	4.70	
Cc1c(C)[n+](C)c(SCC(=O)CC[C@H](NC(=O)CNC(=O)OCc2ccccc2)C(=O)O)n1C	6.00	5.70	
CC[S+](CC)CC(=O)CC[C@H](NC(=O)CNC(=O)OCc1ccccc1)C(=O)O	4.70	< 3.70	
CCC[n+]1c(C)c(C)n(C)c1SCC(=O)CC[C@H](NC(=O)[C@H](Cc1ccccc1)NC(=O)OCc1ccccc1)C(=O)O	< 3.70	< 3.70	
C[S+](C)CC(=O)CC[C@H](NC(=O)[C@H](Cc1ccccc1)NC(=O)OCc1ccccc1)C(=O)O	5.00	3.98	
Cc1c(C)[n+](C)c(SCC(=O)CC[C@H](NC(=O)[C@H](Cc2ccccc2)NC(=O)OCc2ccccc2)C(=O)O)n1C.[Br-]	5.52	5.30	Non-toxic

Now from value to compound, other results behind:

pIC50 [1]	pIC50 [2]	Structure (SMILES)	Activity (NIH3T3)
5.10	< 3.70	C[S+](C)CC(=O)CC[C@H](NC(=O)CNC(=O)OCc1ccccc1)C(=O)O	
< 3.70	< 3.70	CCn1c(C)c(C)[n+](CC)c1SCC(=O)CC[C@H](NC(=O)CNC(=O)OCc1ccccc1)C(=O)O	
< 3.70	< 3.70	Cc1c(C)[n+](C)c(SCC(=O)CC[C@H](NC(=O)[C@H](Cc2ccccc2)NC(=O)OCc2ccccc2)C(=O)O)n1-c1ccccc1	
< 3.70	4.52	CCC[n+]1c(C)c(C)n(C)c1SCC(=O)CC[C@H](NC(=O)CNC(=O)OCc1ccccc1)C(=O)O	
4.70	< 3.70	CC[S+](CC)CC(=O)CC[C@H](NC(=O)[C@H](Cc1ccccc1)NC(=O)OCc1ccccc1)C(=O)O	
